Among the data in ChEMBL document CHEMBL4622980, “Peptide Inhibitors of Bacterial Protein Synthesis with Broad Spectrum and SbmA-Independent Bactericidal Activity against Clinical Pathogens” (J Med Chem, 2020) are MIC99 values, retold here.

Converted amounts (≈) assume the structure as drawn. Non-standard residues stand in square brackets, D forms with d. Residues, ends and D or L forms follow the SMILES beside them. ξ: configuration not given here. ξP = O=C(O)C1CCCN1

The assay has as its system Escherichia coli. Briefly: Antibacterial activity against Escherichia coli BW25113 assessed as prevention visible bacterial growth incubated for 18 hrs. Type of assay: functional. The settings on record: BW25113, 18 h.
As for `CC(C)C[C@H](NC(=O)[C@H](CCCNC(=N)N)NC(=O)[C@@H]1CCCN1C(=O)[C@@H]1CCCN1C(=O)[C@H](CCCNC(=N)N)NC(=O)[C@@H]1CCCN1C(=O)[C@H](CCCNC(=N)N)NC(=O)C1CCCN1C(=O)[C@H](CCCNC(=N)N)NC(=O)[C@@H](N)CCCNC(=N)N)C(=O)N1CCC[C@H]1C(=O)N[C@@H](CCCNC(=N)N)C(=O)N1CCC[C@H]1C(=O)N[C@@H](CCCNC(=N)N)C(=O)N1CCC[C@H]1C(=O)N[C@@H](CCCNC(=N)N)C(=O)O` (stereo partly drawn) (H-RR[ξP]RPRPPRLPRPRPR-OH), the MIC99 was 16 µM (≈ 33 µg/mL).

For the compound `CC[C@H](C)[C@H](NC(=O)C1CCCN1C(=O)[C@@H](N)CCCNC(=N)N)C(=O)N[C@@H](CCCNC(=N)N)C(=O)N1CCC[C@H]1C(=O)N[C@@H](CCCNC(=N)N)C(=O)N1CCC[C@H]1C(=O)N1CCC[C@H]1C(=O)N[C@@H](CCCNC(=N)N)C(=O)N[C@@H](CC(C)C)C(=O)N1CCC[C@H]1C(=O)N[C@@H](CCCNC(=N)N)C(=O)N1CCC[C@H]1C(=O)N[C@@H](CCCNC(=N)N)C(=O)N1CCC[C@H]1C(=O)N[C@@H](CCCNC(=N)N)C(=O)O` (stereo partly drawn) (H-R[ξP]IRPRPPRLPRPRPR-OH), the MIC99 was 64 µM (≈ 129 µg/mL).

For the compound H-ARIRPRPPRLPRPRPR-OH, the MIC99 was found to be 4 µM.

With H-ERIRPRPPRLPRPRPR-OH, the MIC99 is 64 µM.

H-FRIRPRPPRLPRPRPR-OH: the MIC99 is 4 µM.

Consider H-GRIRPRPPRLPRPRPR-OH, for which the MIC99 stood at 8 µM.

On to H-IRPLPPRRPRRPRRRP-OH, for which the MIC99 stood at 64 µM.

For the compound H-PRIRPRPPRLPRPRPR-OH, the MIC99 was determined as 8 µM.

Regarding H-RAIRPRPPRLPRPRPR-OH, the MIC99 turned out to be 16 µM.

On to H-REIRPRPPRLPRPRPR-OH, for which the MIC99 came out at 64 µM.

For the compound H-RFIRPRPPRLPRPRPR-OH, the MIC99 was 16 µM.

On to H-RGIRPRPPRLPRPRPR-OH, for which the MIC99 came to 16 µM.

For H-RRARPRPPRLPRPRPR-OH, the MIC99 was 16 µM.

Turning to H-RRERPRPPRLPRPRPR-OH, the MIC99 turned out to be 64 µM.

For H-RRFRPRPPRLPRPRPR-OH, the MIC99 was 16 µM.

Take H-RRGRPRPPRLPRPRPR-OH: the MIC99 came to 16 µM.

Turning to H-RRIAPRPPRLPRPRPR-OH, the MIC99 is 16 µM.

For the compound H-RRIEPRPPRLPRPRPR-OH, the MIC99 was greater than 64 µM.

For H-RRIFPRPPRLPRPRPR-OH, the MIC99 amounted to 16 µM.

H-RRIGPRPPRLPRPRPR-OH: the MIC99 came out at 16 µM.

Turning to H-RRIPPRPPRLPRPRPR-OH, the MIC99 was 16 µM.

For H-RRIRARPPRLPRPRPR-OH, the MIC99 was found to be 8 µM.

As to H-RRIRERPPRLPRPRPR-OH, the MIC99 was determined as 32 µM.

Regarding H-RRIRFRPPRLPRPRPR-OH, the MIC99 is 8 µM.

Consider H-RRIRGRPPRLPRPRPR-OH, for which the MIC99 amounted to 8 µM.

As for H-RRIRPAPPRLPRPRPR-OH, the MIC99 turned out to be 16 µM.

Turning to H-RRIRPEPPRLPRPRPR-OH, the MIC99 was greater than 64 µM.

Take H-RRIRPFPPRLPRPRPR-OH: the MIC99 came to 16 µM.

Turning to H-RRIRPGPPRLPRPRPR-OH, the MIC99 was determined as 32 µM.

With H-RRIRPPPPRLPRPRPR-OH, the MIC99 was 32 µM.

With H-RRIRPRAPRLPRPRPR-OH, the MIC99 was determined as 16 µM.

In the case of H-RRIRPREPRLPRPRPR-OH, the MIC99 was determined as 32 µM.

On to H-RRIRPRFPRLPRPRPR-OH, for which the MIC99 is 8 µM.

For H-RRIRPRGPRLPRPRPR-OH, the MIC99 was 16 µM.

As for H-RRIRPRPARLPRPRPR-OH, the MIC99 turned out to be 16 µM.

In the case of H-RRIRPRPERLPRPRPR-OH, the MIC99 worked out at 64 µM.

With H-RRIRPRPFRLPRPRPR-OH, the MIC99 is 16 µM.

H-RRIRPRPGRLPRPRPR-OH: the MIC99 worked out at 16 µM.

With H-RRIRPRPPALPRPRPR-OH, the MIC99 was 64 µM.

On to H-RRIRPRPPELPRPRPR-OH, for which the MIC99 was greater than 64 µM.

With H-RRIRPRPPFLPRPRPR-OH, the MIC99 worked out at 16 µM.

Consider H-RRIRPRPPGLPRPRPR-OH, for which the MIC99 worked out at 64 µM.

For H-RRIRPRPPPLPRPRPR-OH, the MIC99 worked out at 16 µM.

For the compound H-RRIRPRPPRAPRPRPR-OH, the MIC99 is 64 µM.

In the case of H-RRIRPRPPREPRPRPR-OH, the MIC99 is greater than 64 µM.

In the case of H-RRIRPRPPRFPRPRPR-OH, the MIC99 was determined as 32 µM.

H-RRIRPRPPRGPRPRPR-OH: the MIC99 was determined as 64 µM.

In the case of H-RRIRPRPPRLARPRPR-OH, the MIC99 was 32 µM.

In the case of H-RRIRPRPPRLERPRPR-OH, the MIC99 was found to be 64 µM.

As to H-RRIRPRPPRLFRPRPR-OH, the MIC99 is 32 µM.

For H-RRIRPRPPRLGRPRPR-OH, the MIC99 was determined as 32 µM.

Take H-RRIRPRPPRLPAPRPR-OH: the MIC99 was 32 µM.

Take H-RRIRPRPPRLPEPRPR-OH: the MIC99 was greater than 64 µM.

Regarding H-RRIRPRPPRLPFPRPR-OH, the MIC99 amounted to 16 µM.

For the compound H-RRIRPRPPRLPGPRPR-OH, the MIC99 stood at 32 µM.

As to H-RRIRPRPPRLPPPRPR-OH, the MIC99 is 32 µM.

On to H-RRIRPRPPRLPRARPR-OH, for which the MIC99 was determined as 16 µM.

H-RRIRPRPPRLPRERPR-OH: the MIC99 was 64 µM.

Turning to H-RRIRPRPPRLPRFRPR-OH, the MIC99 amounted to 8 µM.

Regarding H-RRIRPRPPRLPRGRPR-OH, the MIC99 was 16 µM.

In the case of H-RRIRPRPPRLPRPAPR-OH, the MIC99 is 32 µM.

For the compound H-RRIRPRPPRLPRPEPR-OH, the MIC99 amounted to 64 µM.

As to H-RRIRPRPPRLPRPFPR-OH, the MIC99 turned out to be 8 µM.

Regarding H-RRIRPRPPRLPRPGPR-OH, the MIC99 worked out at 32 µM.

For H-RRIRPRPPRLPRPPPR-OH, the MIC99 came to 32 µM.

H-RRIRPRPPRLPRPRAR-OH: the MIC99 was 8 µM.

Take H-RRIRPRPPRLPRPRER-OH: the MIC99 is 32 µM.

Consider H-RRIRPRPPRLPRPRFR-OH, for which the MIC99 was 8 µM.

In the case of H-RRIRPRPPRLPRPRGR-OH, the MIC99 was found to be 16 µM.

As to H-RRIRPRPPRLPRPRPA-OH, the MIC99 was 16 µM.

For H-RRIRPRPPRLPRPRPE-OH, the MIC99 turned out to be 64 µM.

In the case of H-RRIRPRPPRLPRPRPF-OH, the MIC99 was found to be 8 µM.

In the case of H-RRIRPRPPRLPRPRPG-OH, the MIC99 was determined as 16 µM.

With H-RRIRPRPPRLPRPRPP-OH, the MIC99 was determined as 32 µM.

Turning to H-RRIRPRPPRLPRPRPS-OH, the MIC99 was 16 µM.

As for H-RRIRPRPPRLPRPRPW-OH, the MIC99 was 8 µM.

For the compound H-RRIRPRPPRLPRPRRR-OH, the MIC99 stood at 16 µM.

Regarding H-RRIRPRPPRLPRPRSR-OH, the MIC99 worked out at 16 µM.

For H-RRIRPRPPRLPRPSPR-OH, the MIC99 was 32 µM.

For H-RRIRPRPPRLPRPWPR-OH, the MIC99 is 4 µM.

Take H-RRIRPRPPRLPRRRPR-OH: the MIC99 was found to be 8 µM.

Regarding H-RRIRPRPPRLPRSRPR-OH, the MIC99 amounted to 16 µM.

Consider H-RRIRPRPPRLPRWRPR-OH, for which the MIC99 came out at 2 µM.

H-RRIRPRPPRLPSPRPR-OH: the MIC99 came out at 16 µM.

For H-RRIRPRPPRLPWPRPR-OH, the MIC99 amounted to 8 µM.

For the compound H-RRIRPRPPRLRRPRPR-OH, the MIC99 was determined as 16 µM.

For H-RRIRPRPPRLSRPRPR-OH, the MIC99 amounted to 32 µM.

Consider H-RRIRPRPPRLWRPRPR-OH, for which the MIC99 was 8 µM.

Turning to H-RRIRPRPPRPPRPRPR-OH, the MIC99 is 64 µM.

H-RRIRPRPPRRPRPRPR-OH: the MIC99 came out at 32 µM.

For the compound H-RRIRPRPPRSPRPRPR-OH, the MIC99 was found to be 32 µM.

Regarding H-RRIRPRPPRWPRPRPR-OH, the MIC99 turned out to be 16 µM.

Regarding H-RRIRPRPPSLPRPRPR-OH, the MIC99 was 32 µM.

On to H-RRIRPRPPWLPRPRPR-OH, for which the MIC99 came to 4 µM.

With H-RRIRPRPRRLPRPRPR-OH, the MIC99 was found to be 16 µM.

Consider H-RRIRPRPSRLPRPRPR-OH, for which the MIC99 came out at 16 µM.

Take H-RRIRPRPWRLPRPRPR-OH: the MIC99 stood at 4 µM.

With H-RRIRPRRPRLPRPRPR-OH, the MIC99 is 8 µM.

As for H-RRIRPRSPRLPRPRPR-OH, the MIC99 is 16 µM.

Turning to H-RRIRPRWPRLPRPRPR-OH, the MIC99 was 4 µM.

Take H-RRIRPSPPRLPRPRPR-OH: the MIC99 came to 32 µM.

Take H-RRIRPWPPRLPRPRPR-OH: the MIC99 amounted to 8 µM.

In the case of H-RRIRRRPPRLPRPRPR-OH, the MIC99 amounted to 8 µM.

Regarding H-RRIRSRPPRLPRPRPR-OH, the MIC99 amounted to 16 µM.

On to H-RRIRWRPPRLPRPRPR-OH, for which the MIC99 was found to be 4 µM.

With H-RRISPRPPRLPRPRPR-OH, the MIC99 stood at 32 µM.

As for H-RRIWPRPPRLPRPRPR-OH, the MIC99 was 8 µM.

As to H-RRRRPRPPRLPRPRPR-OH, the MIC99 was 8 µM.

With H-RRSRPRPPRLPRPRPR-OH, the MIC99 came to 16 µM.

Take H-RRWRPRPPRLPRPRPR-OH: the MIC99 turned out to be 4 µM.

In the case of H-RSIRPRPPRLPRPRPR-OH, the MIC99 is 16 µM.

As for H-RWIRPRPPRLPRPRPR-OH, the MIC99 turned out to be 8 µM.

As for H-SRIRPRPPRLPRPRPR-OH, the MIC99 worked out at 16 µM.
